Legend:
[1] = Inhibition of Saccharomyces cerevisiae imidazole glycerol-phosphate dehydratase expressed in Escherichia coli
Saccharomyces cerevisiae = assay: Inhibition of Saccharomyces cerevisiae imidazole glycerol-phosphate dehydratase expressed in Escherichia coli at 1 uM

Row | inhibition (Saccharomyces cerevisiae) [%] | IC50 [1] [µM] | Structure (SMILES) | Ki [1] [µM]
1 | – | – | O=P(O)(O)CC(O)Cn1cncn1 (centres undefined) | 0.0006
2 | 80 | < 1 | O=P(O)(O)COCC(O)Cn1cncn1 (centres undefined) | –
3 | – | 6 | O=C(O)C(CCC(O)c1nc[nH]n1)C(=O)O (centres undefined) | –
4 | – | 80 | O=P(O)(O)CCCCC(O)c1nc[nH]n1 (centres undefined) | –
5 | – | > 500 | O=C(O)C(CC(O)c1nc[nH]n1)C(=O)O (centres undefined) | –
6 | – | 30 | O=C(O)C(OCCC(O)Cn1cncn1)C(=O)O (centres undefined) | –
7 | – | 10 | CNC(CC(O)CCP(=O)(O)O)c1nc[nH]n1 (centres undefined) | –
8 | – | 7 | O=P(O)(O)CSCC(O)Cn1cncn1 (centres undefined) | –
9 | – | > 500 | O=C(O)C(CCCC(O)c1nc[nH]n1)C(=O)O (centres undefined) | –
10 | – | 100 | O=C(O)C(OCC(O)Cn1cncn1)C(=O)O (centres undefined) | –

Row | Structure (SMILES) | inhibition (Saccharomyces cerevisiae) [%] | IC50 [1] [µM] | Ki [1] [µM]
11 | O=P(O)(O)COCCNc1nc[nH]n1 | – | 5 | –
12 | O=P(O)(O)CCC(O)c1nc[nH]n1 (centres undefined) | – | 0.13 | 0.04
